This passage reports IC50 and inhibition results from patent publication US20120178766A1, “FUROPYRIMIDINEDIONE DERIVATIVES AS TRPAI MODULATORS” (priority 2009, published 2012).

One experiment addresses T1, rat TRPA1 (Rattus norvegicus, UniProt Q6RI86).
T1 construct: expressed in transfected cells; host or cells: CHO cells (Zeocin selection)
In words: 45Calcium uptake assay: inhibition of AITC induced cellular uptake of radioactive calcium, rat TRPA1 expressing CHO cells. In kind it is cell-based. To be noted: AITC 10 μM; for IC50: class symbols; for inhibition at 10 µM: 10.0 μM compound, read-out: rat TRPA1 Percentage inhibition at 10.0 μM; for inhibition at 1 µM: read-out: rat TRPA1 Percentage inhibition. Here is the method: (§1) Screening for TRPA1 Antagonist Using the ^45Calcium Uptake Assay:
(§2) The inhibition of TRPA1 receptor activation was measured as inhibition of allyl isothiocyanate (AITC) induced cellular uptake of radioactive calcium.
Test compounds were dissolved in 100% DMSO to prepare 10 mM stock and then diluted using plain medium with 0.1% BSA and 1.8 mM CaCl2 to get the desired concentration. The final concentration of DMSO in the reaction was 0.5% (v/v). […] Rat TRPA1 expressing CHO cells were grown in F-12 DMEM medium with 10% FBS, 1% penicillin-streptomycin solution, and 400 μg/ml of Zeocin. […] Cells were treated with the test compounds for 10 minutes followed by the addition of AITC at a final concentration of 30 μM (for human TRPA1) and/or 10 μM (for rat TRPA1) and 5 μCi/ml ^45Ca^+2 for 3 minutes. Cells were washed and lysed using a buffer containing 1% Triton X-100, 0.1% deoxycholate and 0.1% SDS. Radioactivity in the lysate was measured in a Packard TopCount after addition of liquid scintillant.
(§3) Concentration response curves were plotted as a % of maximal response obtained in the absence of test antagonist. IC50 values can be calculated from concentration response curve by nonlinear regression analysis using GraphPad PRISM software.

The target of a further experiment is T2, human TRPA1 (Homo sapiens, UniProt O75762).
T2 construct: expressed in transfected cells; host or cells: CHO cells (G-418 selection)
In words: 45Calcium uptake assay: inhibition of AITC induced cellular uptake of radioactive calcium, human TRPA1 expressing CHO cells. The format is cell-based. To be noted: AITC 30 μM; for inhibition at 1 µM: 1.0 μM compound, read-out: human TRPA1 Percentage inhibition at 1.0 μM; for inhibition at 10 µM: 10.0 μM compound, read-out: human TRPA1 Percentage inhibition at 10.0 μM; for IC50: class symbols.
Source text: The illustrative examples of the present invention are screened for TRPA1 activity according to a modified procedure described in (a) Tóth, A. et al. Life Sciences, 2003, 73, 487-498. (b) McNamara C, R. et al, Proc. Natl. Acad. Sci. U.S.A., 2007, 104, 13525-13530. The screening of the compounds can be carried out by other methods and procedures known to persons skilled in the art.
as §1, §2
Test compounds were dissolved in 100% DMSO to prepare 10 mM stock and then diluted using plain medium with 0.1% BSA and 1.8 mM CaCl2 to get the desired concentration. The final concentration of DMSO in the reaction was 0.5% (v/v). Human TRPA1 expressing CHO cells were grown in F-12 DMEM medium with 10% FBS, 1% penicillin-streptomycin solution, and 400 μg/ml of G-418. Rat TRPA1 expressing CHO cells were grown in F-12 DMEM medium with 10% FBS, 1% penicillin-streptomycin solution, and 400 μg/ml of Zeocin. Cells were seeded 24 h prior to the assay in 96 well plates so as to get ˜50,000 cells per well on the day of experiment. Cells were treated with the test compounds for 10 minutes followed by the addition of AITC at a final concentration of 30 μM (for human TRPA1) and/or 10 μM (for rat TRPA1) and 5 μCi/ml ^45Ca^+2 for 3 minutes. Cells were washed and lysed using a buffer containing 1% Triton X-100, 0.1% deoxycholate and 0.1% SDS. Radioactivity in the lysate was measured in a Packard TopCount after addition of liquid scintillant. (Toth et al, Life Sciences (2003) 73, 487-498; McNamara C R et al, Proceedings of the National Academy of Sciences, (2007) 104, 13525-13530).
as §3

Molecules are shown by their SMILES. Where only a bound is given, the exact number is not on record here.

T2 sequence (O75762 whole entry): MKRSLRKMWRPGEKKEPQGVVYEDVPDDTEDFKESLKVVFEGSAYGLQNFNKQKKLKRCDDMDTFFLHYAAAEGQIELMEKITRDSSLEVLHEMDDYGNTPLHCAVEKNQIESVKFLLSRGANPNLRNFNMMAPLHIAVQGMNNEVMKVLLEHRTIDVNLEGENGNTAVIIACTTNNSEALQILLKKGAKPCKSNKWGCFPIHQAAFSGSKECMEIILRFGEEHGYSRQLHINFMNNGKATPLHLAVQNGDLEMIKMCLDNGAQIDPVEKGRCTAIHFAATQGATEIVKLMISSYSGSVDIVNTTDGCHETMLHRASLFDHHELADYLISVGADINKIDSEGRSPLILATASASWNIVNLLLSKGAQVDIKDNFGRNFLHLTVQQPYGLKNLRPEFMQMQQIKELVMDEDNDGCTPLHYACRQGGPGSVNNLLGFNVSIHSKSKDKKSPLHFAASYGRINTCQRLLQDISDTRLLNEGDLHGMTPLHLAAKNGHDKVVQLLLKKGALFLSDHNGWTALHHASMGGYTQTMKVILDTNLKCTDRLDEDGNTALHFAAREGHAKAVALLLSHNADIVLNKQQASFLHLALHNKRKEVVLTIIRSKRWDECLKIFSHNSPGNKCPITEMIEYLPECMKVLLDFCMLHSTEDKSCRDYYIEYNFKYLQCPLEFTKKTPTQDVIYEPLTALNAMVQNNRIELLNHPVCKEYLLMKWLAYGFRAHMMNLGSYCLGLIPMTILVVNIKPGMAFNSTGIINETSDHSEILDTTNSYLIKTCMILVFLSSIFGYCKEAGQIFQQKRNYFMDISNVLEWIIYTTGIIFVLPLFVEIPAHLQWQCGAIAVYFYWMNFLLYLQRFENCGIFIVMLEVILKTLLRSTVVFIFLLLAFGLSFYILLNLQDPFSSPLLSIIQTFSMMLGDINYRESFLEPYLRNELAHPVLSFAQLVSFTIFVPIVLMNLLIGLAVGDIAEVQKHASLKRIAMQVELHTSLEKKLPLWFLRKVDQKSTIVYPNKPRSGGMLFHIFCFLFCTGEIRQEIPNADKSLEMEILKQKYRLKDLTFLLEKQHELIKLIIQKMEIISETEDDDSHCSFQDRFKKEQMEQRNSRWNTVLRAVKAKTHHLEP
T1 sequence (Q6RI86 whole entry): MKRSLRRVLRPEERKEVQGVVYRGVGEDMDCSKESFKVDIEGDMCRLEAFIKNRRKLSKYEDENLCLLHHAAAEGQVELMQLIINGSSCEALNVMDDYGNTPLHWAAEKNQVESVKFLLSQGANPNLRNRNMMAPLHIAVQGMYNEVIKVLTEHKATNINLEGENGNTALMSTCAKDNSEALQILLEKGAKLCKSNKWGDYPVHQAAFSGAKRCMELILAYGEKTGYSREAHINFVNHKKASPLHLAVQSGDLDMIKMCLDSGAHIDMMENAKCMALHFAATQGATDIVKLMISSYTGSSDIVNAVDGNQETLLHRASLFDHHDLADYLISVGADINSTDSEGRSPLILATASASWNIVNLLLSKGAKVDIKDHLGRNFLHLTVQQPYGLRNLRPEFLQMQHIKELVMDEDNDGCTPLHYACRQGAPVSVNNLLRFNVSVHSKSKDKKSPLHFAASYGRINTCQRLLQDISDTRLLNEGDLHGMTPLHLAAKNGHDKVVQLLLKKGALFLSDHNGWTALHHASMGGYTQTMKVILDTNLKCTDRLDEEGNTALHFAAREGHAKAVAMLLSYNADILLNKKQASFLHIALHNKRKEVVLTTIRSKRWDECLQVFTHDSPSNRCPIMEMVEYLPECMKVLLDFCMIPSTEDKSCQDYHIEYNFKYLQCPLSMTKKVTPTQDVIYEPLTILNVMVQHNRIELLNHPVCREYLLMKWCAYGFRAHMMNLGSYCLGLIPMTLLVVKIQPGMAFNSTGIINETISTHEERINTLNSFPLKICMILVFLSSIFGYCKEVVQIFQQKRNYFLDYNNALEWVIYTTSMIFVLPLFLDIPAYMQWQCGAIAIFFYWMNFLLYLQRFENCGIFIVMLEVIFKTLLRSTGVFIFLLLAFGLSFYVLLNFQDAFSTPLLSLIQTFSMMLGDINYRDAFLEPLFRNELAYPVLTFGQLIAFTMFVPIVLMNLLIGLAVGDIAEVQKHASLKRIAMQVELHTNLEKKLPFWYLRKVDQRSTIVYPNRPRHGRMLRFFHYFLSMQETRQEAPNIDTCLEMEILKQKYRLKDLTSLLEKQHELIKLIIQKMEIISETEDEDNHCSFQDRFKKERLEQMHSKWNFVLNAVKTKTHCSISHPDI

Regarding `Cn1c(=O)c2c(CC(=O)Nc3nc(-c4ccc(Cl)c(Cl)c4)cs3)coc2n(C)c1=O` [Example 13, N1-[4-(3,4-Dichlorophenyl)-1,3-thiazol-2-yl]-2-(1,3-dimethyl-2,4-dioxo-1,2,3,4-tetrahydrofuro[2,3-d]pyrimidin-5-yl)acetamide], the concentration for half-maximal inhibition (IC50) at rat TRPA1 is > 100 nM. On human TRPA1, the inhibition at 1 µM is 98.5%, the inhibition at 10 µM is 99.4% and the IC50 was < 50 nM.
Turning to `Cn1c(=O)c2c(CC(=O)Nc3nc(-c4ccc(C(F)(F)F)c(F)c4)cs3)coc2n(C)c1=O` [Example 14, N1-{4-[3-Fluoro-4-(trifluoromethyl)phenyl]-1,3-thiazol-2-yl}-2-(1,3-dimethyl-2,4-dioxo-1,2,3,4-tetrahydrofuro[2,3-d]pyrimidin-5-yl)acetamide], on rat TRPA1, the inhibition at 10 µM was found to be 100%, the inhibition at 1 µM turned out to be 100% and the IC50 was < 50 nM. On human TRPA1, the inhibition at 1 µM stood at 99.4%, the inhibition at 10 µM came to 99.7% and the 50% inhibitory concentration (IC50) is < 50 nM.
In the case of `Cn1c(=O)c2c(CC(=O)Nc3nc(-c4ccc(F)c(C(F)(F)F)c4)cs3)coc2n(C)c1=O` [Example 15, N1-{4-[4-Fluoro-3-(trifluoromethyl)phenyl]-1,3-thiazol-2-yl}-2-(1,3-dimethyl-2,4-dioxo-1,2,3,4-tetrahydrofuro[2,3-d]pyrimidin-5-yl)acetamide], at rat TRPA1, the inhibition at 10 µM worked out at 99%, the inhibition at 1 µM stood at 100% and the concentration for half-maximal inhibition (IC50) is < 50 nM. In addition, at human TRPA1, the inhibition at 1 µM stood at 99.9%, the inhibition at 10 µM worked out at 99.8% and the IC50 was < 50 nM.
`Cn1c(=O)c2c(CC(=O)Nc3nc(-c4ccc(F)c(OC(F)(F)F)c4)cs3)coc2n(C)c1=O` [Example 16, N1-{4-[4-Fluoro-3-(trifluoromethoxy)phenyl]-1,3-thiazol-2-yl}-2-(1,3-dimethyl-2,4-dioxo-1,2,3,4-tetrahydrofuro[2,3-d]pyrimidin-5-yl)acetamide]: on rat TRPA1, the inhibition at 10 µM was found to be 98.6%, the inhibition at 1 µM stood at 100% and the half-inhibitory concentration (IC50) is < 50 nM. Besides, at human TRPA1, the inhibition at 1 µM stood at 98.5%, the inhibition at 10 µM amounted to 99.2% and the IC50 is < 50 nM.
As to `Cn1c(=O)c2c(CC(=O)Nc3nc(-c4ccc(OC(F)(F)F)c(F)c4)cs3)coc2n(C)c1=O` [Example 17, N1-{4-[3-Fluoro-4-(trifluoromethoxy)phenyl]-1,3-thiazol-2-yl}-2-(1,3-dimethyl-2,4-dioxo-1,2,3,4-tetrahydrofuro[2,3-d]pyrimidin-5-yl)acetamide], at rat TRPA1, the inhibition at 10 µM turned out to be 99.8%, the inhibition at 1 µM was 97.7% and the half-maximal inhibitory concentration (IC50) was in the range of 50 to 100 nM. Further, at human TRPA1, the inhibition at 1 µM was 99.9%, the inhibition at 10 µM is 100% and the concentration for half-maximal inhibition (IC50) was < 50 nM.
Turning to `Cn1c(=O)c2c(CC(=O)Nc3nc(-c4ccc(Cl)c(C(F)(F)F)c4)cs3)coc2n(C)c1=O` [Example 18, N1-{4-[4-Chloro-3-(trifluoromethyl)phenyl]-1,3-thiazol-2-yl}-2-(1,3-dimethyl-2,4-dioxo-1,2,3,4-tetrahydrofuro[2,3-d]pyrimidin-5-yl)acetamide], on rat TRPA1, the inhibition at 10 µM was determined as 94.1%, the inhibition at 1 µM stood at 99.9% and the 50% inhibitory concentration (IC50) was 50 to 100 nM. Also, at human TRPA1, the inhibition at 1 µM stood at 99.9%, the inhibition at 10 µM worked out at 100% and the IC50 is < 50 nM.
On to `Cn1c(=O)c2c(CC(=O)Nc3nc(-c4ccc(Cl)c(OC(F)(F)F)c4)cs3)coc2n(C)c1=O` [Example 19, N1-{4-[4-Chloro-3-(trifluoromethoxy)phenyl]-1,3-thiazol-2-yl]-2-(1,3-dimethyl-2,4-dioxo-1,2,3,4-tetrahydrofuro[2,3-d]pyrimidin-5-yl)acetamide], for which, at rat TRPA1, the inhibition at 10 µM is 98.2%, the inhibition at 1 µM was 98.9% and the IC50 was 50 to 100 nM. Also, at human TRPA1, the inhibition at 1 µM worked out at 99.9%, the inhibition at 10 µM worked out at 100% and the IC50 is < 50 nM.
Turning to `Cn1c(=O)c2c(CC(=O)Nc3nc(-c4cccc(C(F)(F)F)c4F)cs3)coc2n(C)c1=O` [Example 20, N1-{4-[2-Fluoro-3-(trifluoromethyl)phenyl]-1,3-thiazol-2-yl}-2-(1,3-dimethyl-2,4-dioxo-1,2,3,4-tetrahydrofuro[2,3-d]pyrimidin-5-yl)acetamide], at rat TRPA1, the inhibition at 10 µM is 99.8%, the inhibition at 1 µM stood at 96.8% and the IC50 was < 50 nM. Further, on human TRPA1, the inhibition at 1 µM came out at 98.5%, the inhibition at 10 µM stood at 97.5% and the IC50 is < 50 nM.
As for `Cn1c(=O)c2c(CC(=O)Nc3nc(-c4cc(F)cc(C(F)(F)F)c4)cs3)coc2n(C)c1=O` [Example 21, N1-{4-[3-Fluoro-5-(trifluoromethyl)phenyl]-1,3-thiazol-2-yl}-2-(1,3-dimethyl-2,4-dioxo-1,2,3,4-tetrahydrofuro[2,3-d]pyrimidin-5-yl)acetamide], on rat TRPA1, the inhibition at 10 µM was found to be 99.9%, the inhibition at 1 µM worked out at 98.9% and the concentration for half-maximal inhibition (IC50) was < 50 nM. On human TRPA1, the inhibition at 1 µM amounted to 99.8%, the inhibition at 10 µM turned out to be 99.8% and the IC50 was < 50 nM.
As to `Cn1c(=O)c2c(CC(=O)Nc3nc(-c4ccc(C(F)(F)F)cc4F)cs3)coc2n(C)c1=O` [Example 22, N1-{4-[2-Fluoro-4-(trifluoromethyl)phenyl]-1,3-thiazol-2-yl}-2-(1,3-dimethyl-2,4-dioxo-1,2,3,4-tetrahydrofuro[2,3-d]pyrimidin-5-yl)acetamide], at rat TRPA1, the inhibition at 10 µM turned out to be 100% and the inhibition at 1 µM was found to be 100%. For the same molecule, on human TRPA1, the inhibition at 1 µM stood at 99.3%, the inhibition at 10 µM worked out at 98.5% and the concentration for half-maximal inhibition (IC50) was < 50 nM.
Regarding `Cn1c(=O)c2c(CC(=O)Nc3nc(-c4ccc(OC(F)F)c(F)c4)cs3)coc2n(C)c1=O` [Example 23, N1-[4-(3-Fluoro-4-difluoromethoxyphenyl)-1,3-thiazol-2-yl]-2-(1,3-dimethyl-2,4-dioxo-1,2,3,4-tetrahydrofuro[2,3-d]pyrimidin-5-yl)acetamide], at rat TRPA1, the inhibition at 10 µM was 95.5%, the inhibition at 1 µM was 92.6% and the IC50 was > 100 nM. In addition, on human TRPA1, the inhibition at 1 µM was determined as 96.3%, the inhibition at 10 µM worked out at 99% and the 50% inhibitory concentration (IC50) was < 50 nM.
Regarding `Cn1c(=O)c2c(CC(=O)Nc3nc(-c4ccc(OC(F)F)c(Cl)c4)cs3)coc2n(C)c1=O` [Example 24, N1-[4-(3-Chloro-4-difluoromethoxyphenyl)-1,3-thiazol-2-yl]-2-(1,3-dimethyl-2,4-dioxo-1,2,3,4-tetrahydrofuro[2,3-d]pyrimidin-5-yl)acetamide], on rat TRPA1, the inhibition at 10 µM was 99.6%, the inhibition at 1 µM was determined as 100% and the 50% inhibitory concentration (IC50) was > 100 nM. Moreover, on human TRPA1, the inhibition at 1 µM amounted to 97.4%, the inhibition at 10 µM was found to be 99.8% and the concentration for half-maximal inhibition (IC50) is < 50 nM.
As to `Cn1c(=O)c2c(CC(=O)Nc3nc(-c4ccc(OCC(C)(C)C)c(F)c4)cs3)coc2n(C)c1=O` [Example 26, N1-{4-[4-(2,2-Dimethylpropoxy)-3-fluorophenyl]-1,3-thiazol-2-yl}-2-(1,3-dimethyl-2,4-dioxo-1,2,3,4-tetrahydrofuro[2,3-d]pyrimidin-5-yl)acetamide], at rat TRPA1, the inhibition at 10 µM turned out to be 99.9% and the inhibition at 1 µM was 98.6%. Besides, on human TRPA1, the inhibition at 1 µM is 97.6%, the inhibition at 10 µM was 99.3% and the half-inhibitory concentration (IC50) was < 50 nM.

A word on the IC50: it is the midpoint of a concentration-inhibition curve. Usually inhibition stands for the change of the read-out against control, counted positive when it falls.
